One may read the Ki as a measure of affinity in units of concentration, obtained from inhibition or displacement. High values mean lower affinity, low ones higher affinity.

Data on 29 compounds can be found in patent US8796289B2 (AbbVie Inc., priority 2011, dated 2014).

Where only a bound is given, the exact number is not on record here.

GST-tagged-Wee1 kinase, sequence (P30291 whole entry): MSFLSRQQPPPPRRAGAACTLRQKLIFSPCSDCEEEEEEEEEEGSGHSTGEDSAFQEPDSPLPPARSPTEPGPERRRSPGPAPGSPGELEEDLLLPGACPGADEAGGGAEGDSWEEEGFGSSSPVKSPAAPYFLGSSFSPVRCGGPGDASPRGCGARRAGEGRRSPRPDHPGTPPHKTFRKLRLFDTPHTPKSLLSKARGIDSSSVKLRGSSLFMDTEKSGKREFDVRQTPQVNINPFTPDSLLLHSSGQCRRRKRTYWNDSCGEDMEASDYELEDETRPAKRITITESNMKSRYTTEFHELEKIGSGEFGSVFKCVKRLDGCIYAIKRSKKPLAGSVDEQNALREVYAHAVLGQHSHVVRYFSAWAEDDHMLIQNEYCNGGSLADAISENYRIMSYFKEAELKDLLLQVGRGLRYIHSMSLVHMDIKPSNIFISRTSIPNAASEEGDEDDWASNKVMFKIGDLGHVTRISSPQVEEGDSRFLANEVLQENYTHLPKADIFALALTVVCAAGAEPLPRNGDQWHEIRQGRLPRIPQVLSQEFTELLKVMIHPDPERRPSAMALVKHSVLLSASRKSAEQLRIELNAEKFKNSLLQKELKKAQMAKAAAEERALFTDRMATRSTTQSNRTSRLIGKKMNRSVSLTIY

This assay has as its target GST-tagged-Wee1 kinase (Homo sapiens, UniProt P30291). The assay is described as follows: Wee1 time-resolved fluorescence equilibrium binding assay (displacement of Oregon Green-labeled ATP-competitive kinase probe). Here is the method:
Wee1 kinase was assayed using a time-resolved fluorescence equilibrium binding assay monitoring displacement of a rapidly reversible Oregon Green-labeled ATP-competitive kinase probe (N-(2-(2-(2-(4-(4-(5-chloro-4-(2-(1-hydroxycyclobutyl)thiazol-5-yl)-1H-pyrrolo[2,3-b]pyridin-2-yl)phenyl)piperazin-1-yl)ethoxy)ethoxy)ethyl)-2′,7′-difluoro-3′,6′-dihydroxy-3-oxo-3H-spiro[isobenzofuran-1,9′-xanthene]-5-carboxamide) by competitive Wee1 inhibitors.
Turning to `Cc1nn(-c2c(Cl)cccc2Cl)c(=O)c2cnc(Nc3ccc(N4CCC(N(C)C)CC4)cc3)nc12` [Example 425, 6-(2,6-dichlorophenyl)-2-({4-[4-(dimethylamino)piperidin-1-yl]phenyl}amino)-8-methylpyrimido[4,5-d]pyridazin-5(6H)-one], the Ki was 190 pM.

In turn, `CN1Cc2cc(Nc3ncc4c(=O)n(-c5c(Cl)cccc5Cl)nc(-c5cccc(F)n5)c4n3)ccc2C2(CC2)C1` [Example 227, 6-(2,6-dichlorophenyl)-8-(6-fluoropyridin-2-yl)-2-[(2′-methyl-2′,3′-dihydro-1′H-spiro[cyclopropane-1,4′-isoquinolin]-7′-yl)amino]pyrimido[4,5-d]pyridazin-5(6H)-one] displayed an inhibitory constant (Ki) of under 1000 pM.

`O=c1c2cnc(Nc3ccc4c(c3)CNCC4)nc2c(C(F)F)nn1-c1c(Cl)cccc1Cl` [Example 410, 6-(2,6-dichlorophenyl)-8-(difluoromethyl)-2-(1,2,3,4-tetrahydroisoquinolin-7-ylamino)pyrimido[4,5-d]pyridazin-5(6H)-one] showed an inhibition constant (Ki) of 1000 pM.

Take `CN1CCN(c2ccc(Nc3ncc4c(=O)n(-c5c(Cl)cccc5Cl)nc(-c5cccc(Br)c5)c4n3)cc2)CC1` [Example 72, 8-(3-bromophenyl)-6-(2,6-dichlorophenyl)-2-{[4-(4-methylpiperazin-1-yl)phenyl]amino}pyrimido[4,5-d]pyridazin-5(6H)-one]: the inhibition constant Ki worked out at 500 pM.

`CN1CCN(c2ccc(Nc3ncc4c(=O)n(-c5cccc(F)c5)nc(C5CC(F)(F)C5)c4n3)cc2)CC1` [Example 199, 8-(3,3-difluorocyclobutyl)-6-(3-fluorophenyl)-2-{[4-(4-methylpiperazin-1-yl)phenyl]amino}pyrimido[4,5-d]pyridazin-5(6H)-one] registered an inhibition constant Ki of 82000 pM. This Ki lies about 160-fold higher than the previous one.

On to `Cc1nn(-c2c(Cl)cccc2Cl)c(=O)c2cnc(Nc3ccc(N4CCN(C)CC4)cc3)nc12` [Example 314, 6-(2,6-dichlorophenyl)-8-methyl-2-{[4-(4-methylpiperazin-1-yl)phenyl]amino}pyrimido[4,5-d]pyridazin-5(6H)-one], for which affinity was put at a Ki of 1200 pM.

As for `CN1CCN(c2ccc(Nc3ncc4c(=O)n(-c5c(Cl)cccc5Cl)nc(-c5ccn(C)n5)c4n3)cc2)CC1` [Example 151, 6-(2,6-dichlorophenyl)-2-{[4-(4-methylpiperazin-1-yl)phenyl]amino}-8-(1-methyl-1H-pyrazol-3-yl)pyrimido[4,5-d]pyridazin-5(6H)-one], the affinity, expressed as Ki, was 70 pM.

`Cc1cccc(Cl)c1-n1nc(C)c2nc(Nc3ccc4c(c3)CNCC4(C)C)ncc2c1=O` [Example 497, 6-(2-chloro-6-methylphenyl)-2-[(4,4-dimethyl-1,2,3,4-tetrahydroisoquinolin-7-yl)amino]-8-methylpyrimido[4,5-d]pyridazin-5(6H)-one] gave an inhibition constant Ki of 260 pM.

On to `CCOc1cccc(-c2nn(-c3c(F)cccc3Cl)c(=O)c3cnc(Nc4ccc(N5CCN(C)CC5)cc4)nc23)n1` [Example 299, 6-(2-chloro-6-fluorophenyl)-8-(6-ethoxypyridin-2-yl)-2-{[4-(4-methylpiperazin-1-yl)phenyl]amino}pyrimido[4,5-d]pyridazin-5(6H)-one], for which the affinity corresponds to a Ki of 990 pM.

`CN1CCN(c2ccc(Nc3ncc4c(=O)n(-c5c(Cl)cccc5Cl)nc(C5CCNCC5)c4n3)cc2)CC1` [Example 148, 6-(2,6-dichlorophenyl)-2-{[4-(4-methylpiperazin-1-yl)phenyl]amino}-8-(piperidin-4-yl)pyrimido[4,5-d]pyridazin-5(6H)-one] registered an inhibition constant (Ki) of 16000 pM. Compared with the last compound, the Ki is about 16-fold higher.

`Cc1nn(-c2ccccc2Cl)c(=O)c2cnc(Nc3ccc4c(c3)CC(N(C)C)C4)nc12` (centres unmarked) [Example 484, 6-(2-chlorophenyl)-2-{[2-(dimethylamino)-2,3-dihydro-1H-inden-5-yl]amino}-8-methylpyrimido[4,5-d]pyridazin-5(6H)-one] showed a Ki of 170 pM.

As to `CN1CCN(c2ccc(Nc3ncc4c(=O)n(-c5c(Cl)cccc5Cl)nc(-c5ccccc5F)c4n3)cc2)CC1` [Example 45, 6-(2,6-dichlorophenyl)-8-(2-fluorophenyl)-2-{[4-(4-methylpiperazin-1-yl)phenyl]amino}pyrimido[4,5-d]pyridazin-5(6H)-one], the Ki worked out at 1000 pM.

With `CC(C)n1cc(-c2nn(-c3c(Cl)cccc3Cl)c(=O)c3cnc(Nc4ccc5c(c4)CNCC54CC4)nc23)cn1` [Example 337, 6-(2,6-dichlorophenyl)-2-(2′,3′-dihydro-1′H-spiro[cyclopropane-1,4′-isoquinolin]-7′-ylamino)-8-[1-(propan-2-yl)-1H-pyrazol-4-yl]pyrimido[4,5-d]pyridazin-5(6H)-one], the Ki worked out at 220 pM.

`Cc1nn(-c2c(Cl)cccc2Cl)c(=O)c2cnc(Nc3ccc(N4CCNCC4)cc3)nc12` [Example 393, 6-(2,6-dichlorophenyl)-8-methyl-2-{[4-(piperazin-1-yl)phenyl]amino}pyrimido[4,5-d]pyridazin-5(6H)-one]: the Ki stood at 1000 pM.

Consider `C=CCn1nc(-c2ccc(-c3ncccn3)cc2)c2nc(Nc3ccc(N4CCN(C)CC4)cc3)ncc2c1=O` [Example 62, 6-allyl-2-{[4-(4-methylpiperazin-1-yl)phenyl]amino}-8-[4-(pyrimidin-2-yl)phenyl]pyrimido[4,5-d]pyridazin-5(6H)-one], for which the inhibition constant Ki worked out at 11000 pM.

`CCc1nn(-c2c(Cl)cccc2Cl)c(=O)c2cnc(Nc3ccc4c(c3)CCN(C)C4)nc12` [Example 492, 6-(2,6-dichlorophenyl)-8-ethyl-2-[(2-methyl-1,2,3,4-tetrahydroisoquinolin-6-yl)amino]pyrimido[4,5-d]pyridazin-5(6H)-one] returned a Ki of 560 pM.

Consider `CN1CCc2ccc(Nc3ncc4c(=O)n(-c5ccccc5Cl)nc(-c5ccccc5)c4n3)cc2C1` [Example 245, 6-(2-chlorophenyl)-2-[(2-methyl-1,2,3,4-tetrahydroisoquinolin-7-yl)amino]-8-phenylpyrimido[4,5-d]pyridazin-5(6H)-one], for which the inhibition constant Ki was determined as 700 pM.

For the compound `Cc1nn(-c2c(Cl)cccc2Cl)c(=O)c2cnc(Nc3ccc4c(c3)CNC4)nc12` [Example 451, 6-(2,6-dichlorophenyl)-2-(2,3-dihydro-1H-isoindol-5-ylamino)-8-methylpyrimido[4,5-d]pyridazin-5(6H)-one], the Ki came out at 190 pM. Compared with the last compound, the Ki is about 3.7-fold lower.

Turning to `CS(=O)(=O)N1Cc2cc(Nc3ncc4c(=O)n(-c5c(Cl)cccc5Cl)nc(-c5ccccn5)c4n3)ccc2C2(CC2)C1` [Example 377, 6-(2,6-dichlorophenyl)-2-{[2′-(methylsulfonyl)-2′,3′-dihydro-1′H-spiro[cyclopropane-1,4′-isoquinolin]-7′-yl]amino}-8-(pyridin-2-yl)pyrimido[4,5-d]pyridazin-5(6H)-one], the affinity, expressed as Ki, was 1300 pM.

Turning to `CN1CCN(c2ccc(Nc3ncc4c(=O)n(-c5ccccc5Cl)nc(-c5cccc(F)c5)c4n3)cc2)CC1` [Example 83, 6-(2-chlorophenyl)-8-(3-fluorophenyl)-2-{[4-(4-methylpiperazin-1-yl)phenyl]amino}pyrimido[4,5-d]pyridazin-5(6H)-one], the inhibition constant Ki came to 200 pM.

On to `CC(=O)N1CCc2cc(Nc3ncc4c(=O)n(-c5c(Cl)cccc5Cl)nc(C)c4n3)ccc2C1` [Example 449, 2-[(2-acetyl-1,2,3,4-tetrahydroisoquinolin-6-yl)amino]-6-(2,6-dichlorophenyl)-8-methylpyrimido[4,5-d]pyridazin-5(6H)-one], for which the affinity, expressed as Ki, was 550 pM.

Compound `CN1CCN(c2ccc(Nc3ncc4c(=O)n(-c5c(Cl)cccc5Cl)ncc4n3)cc2)CC1` [Example 323, 6-(2,6-dichlorophenyl)-2-{[4-(4-methylpiperazin-1-yl)phenyl]amino}pyrimido[4,5-d]pyridazin-5(6H)-one] came in with an inhibition constant Ki of 490 pM.

In turn, `O=c1c2cnc(Nc3ccc4c(c3)CNCC4)nc2c(C2CC2)nn1-c1c(Cl)cccc1Cl` [Example 390, 8-cyclopropyl-6-(2,6-dichlorophenyl)-2-(1,2,3,4-tetrahydroisoquinolin-7-ylamino)pyrimido[4,5-d]pyridazin-5(6H)-one] registered a Ki of 410 pM.

For the compound `CN1CCN(c2ccc(Nc3ncc4c(=O)n(-c5c(Cl)cccc5Cl)nc(-c5cccc(C(C)(C)O)n5)c4n3)cc2)CC1` [Example 160, 6-(2,6-dichlorophenyl)-8-[6-(2-hydroxypropan-2-yl)pyridin-2-yl]-2-{[4-(4-methylpiperazin-1-yl)phenyl]amino}pyrimido[4,5-d]pyridazin-5(6H)-one], the Ki turned out to be 100 pM.

With `CC(C)N1CCN(c2ccc(Nc3ncc4c(=O)n(-c5ccccc5Cl)nc(-c5cccs5)c4n3)cc2)CC1` [Example 122, 6-(2-chlorophenyl)-2-{[4-(4-isopropylpiperazin-1-yl)phenyl]amino}-8-(2-thienyl)pyrimido[4,5-d]pyridazin-5(6H)-one], the affinity, expressed as Ki, was 500 pM.

On to `CC(O)Cn1nc(-c2ccccn2)c2nc(Nc3ccc(N4CCNCC4)cc3)ncc2c1=O` (centres unmarked) [Example 289, 6-(2-hydroxypropyl)-2-{[4-(piperazin-1-yl)phenyl]amino}-8-(pyridin-2-yl)pyrimido[4,5-d]pyridazin-5(6H)-one], for which the affinity corresponds to a Ki of 81000 pM. Against the preceding compound, the Ki is about 160-fold higher.

`CN1Cc2cc(Nc3ncc4c(=O)n(-c5c(Cl)cccc5Cl)ncc4n3)ccc2C2(CC2)C1` [Example 324, 6-(2,6-dichlorophenyl)-2-[(2′-methyl-2′,3′-dihydro-1′H-spiro[cyclopropane-1,4′-isoquinolin]-7′-yl)amino]pyrimido[4,5-d]pyridazin-5(6H)-one]: the Ki was found to be 200 pM.

In turn, `CN1CCN(c2ccc(Nc3ncc4c(=O)n(-c5ncccc5Cl)nc(-c5ccncc5)c4n3)cc2)CC1` [Example 336, 6-(3-chloropyridin-2-yl)-2-{[4-(4-methylpiperazin-1-yl)phenyl]amino}-8-(pyridin-4-yl)pyrimido[4,5-d]pyridazin-5(6H)-one] had a Ki of 490 pM.

As to `Cc1nn(-c2c(Cl)cccc2Cl)c(=O)c2cnc(Nc3ccc(OC4CCN(C)CC4)cc3)nc12` [Example 503, 6-(2,6-dichlorophenyl)-8-methyl-2-({4-[(1-methylpiperidin-4-yl)oxy]phenyl}amino)pyrimido[4,5-d]pyridazin-5(6H)-one], affinity was put at a Ki of 100 pM.
